# ChEMBL document CHEMBL1133158, “Beta-carbonyl substituted glutathione conjugates as inhibitors Of O. volvulus GST2” (Bioorg Med Chem Lett, 2000)
# Assays:
# [1] = molecular target: Glutathione S-transferase P (Homo sapiens, UniProt P09211); test: Inhibitory activity against human Glutathione S-transferase P
# [2] = Selectivity of compound for piGST to that of OvGST2
# Sequence of Glutathione S-transferase P (P09211 whole entry): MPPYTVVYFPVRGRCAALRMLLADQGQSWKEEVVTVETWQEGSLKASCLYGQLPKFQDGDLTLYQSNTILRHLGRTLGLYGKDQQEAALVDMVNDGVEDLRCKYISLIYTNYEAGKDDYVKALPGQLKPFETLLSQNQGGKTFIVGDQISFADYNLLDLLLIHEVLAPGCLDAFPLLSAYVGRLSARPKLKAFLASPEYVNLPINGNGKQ
Structure (SMILES),IC50 [1] [µM],Selectivity [2]
CCCC(CC(C)=O)SCC(NC(=O)CCC(N)C(=O)O)C(=O)NCC(=O)O (stereo unspecified),8.1,1.3
CC(=O)CC(SCC(NC(=O)CCC(N)C(=O)O)C(=O)NCC(=O)O)c1ccccc1 (stereo unspecified),155,–
CC(C)C(=O)CC(SCC(NC(=O)CCC(N)C(=O)O)C(=O)NCC(=O)O)c1ccccc1 (stereo unspecified),> 250,> 7.8
NC(CCC(=O)NC(CSC1CCCC(=O)C1)C(=O)NCC(=O)O)C(=O)O (stereo unspecified),> 250,> 1.1
CC(=O)CC(SCC(NC(=O)CCC(N)C(=O)O)C(=O)NCC(=O)O)C(C)C (stereo unspecified),> 250,–
CCC(=O)CC(C)SCC(NC(=O)CCC(N)C(=O)O)C(=O)NCC(=O)O (stereo unspecified),217,–

# Other lines, results leading:
IC50 [1] [µM],Selectivity [2],Structure (SMILES)
> 250,> 13.9,NC(CCC(=O)NC(CSC(CC(=O)O)C(=O)O)C(=O)NCC(=O)O)C(=O)O (stereo unspecified)
208,–,COC(=O)CC(SCC(NC(=O)CCC(N)C(=O)O)C(=O)NCC(=O)O)C(=O)OC (stereo unspecified)
> 250,–,CCCOC(=O)CC(SCC(NC(=O)CCC(N)C(=O)O)C(=O)NCC(=O)O)C(=O)OCCC (stereo unspecified)
40.3,0.8,CCCCOC(=O)CC(SCC(NC(=O)CCC(N)C(=O)O)C(=O)NCC(=O)O)C(=O)O (stereo unspecified)
5.2,–,CCC(CC(C)=O)SCC(NC(=O)CCC(N)C(=O)O)C(=O)NCC(=O)O (stereo unspecified)
